{"source": "patent US11413261B2", "about": "“Pharmaceutical composition for treating cancer comprising lactate metal salt” (METIMEDI PHARMACEUTICALS CO., LTD, priority 2014, dated 2022)", "key": {"[1]": {"test_system": "human colorectal cancer cell lines (HCT-116 and HT-29)", "experiment": "pH inside and outside cancer cell", "format": "cell-based", "conditions": "2.5 mM", "method": "Specifically, with the cells cultured in Example 2-1, an extracellular pH was measured with a pH meter from the medium for the cells treated with calcium lactate and then cultured and an intracellular pH was measured with a pH detection kit (Life Technologies, CA) from the cells treated with calcium lactate and then cultured (FIG. 4). In this case, cancer cells untreated with calcium lactate were used as control groups."}, "[2]": {"test_system": "LDH-B (lactate dehydrogenase B)", "experiment": "LDH-B protein expression (immunofluorescence)", "format": "cell-based, human", "conditions": "HCT-116 and HT-29; 2.5 mM, 24 hours", "method": "Human colorectal cancer cell lines (HCT-116 and HT-29) were treated with 2.5 mM calcium lactate and cultured for 24 hours. The cultured cancer cell lines were immobilized with 4% paraformaldehyde and treated with an anti-rabbit LDHB antibody for 15 hours. Then, the cancer cell lines were washed with PBS and treated with a secondary antibody conjugated with biotin and then reacted at room temperature for 2 hours. Then, the cancer cell lines were treated with streptavidine conjugated with FITC to perform fluorescence staining and then photographed with a fluorescence microscope (FIG. 11a-11c). In this case, cancer cell lines cultured under normoxia condition (N-control) or hypoxia condition (H-control) were used as control groups, and a nucleus of each cell was stained using DAPI. Further, the photos were analyzed using the Xenogen In Vivo Imaging System 100 series and Living imaging software (Xenogen)."}, "[3]": {"test_system": "human kidney cancer cell line (Caki-1)", "experiment": "Colony-forming ability, anticancer drug in combination with calcium lactate (6-well plates)", "format": "cell-based", "conditions": "2.5 mM calcium lactate alone, vs control", "method": "Human kidney cancer cell line (Caki-1) with the cell number of 1×10^3 cells were seeded into an RPMI1640 medium in each of 6-well plates. After one day, the medium was replaced with fresh medium and the cells were treated with 0.3 nM, 0.5 nM, and 1 nM Everolimus alone or treated with various concentrations (0.3 nM, 0.5 nM, and 1 nM) of Everolimus in combination with 2.5 mM calcium lactate. Then, the colony-forming abilities of the cells were compared. In this case, a human kidney cancer cell line (Caki-1) untreated with any drug was used as a control group (FIGS. 53a and 53b)."}, "[4]": {"test_system": "GLUT 1 and HK2", "experiment": "GLUT 1 and HK2 expression under hypoxia (real-time PCR, Western blot)", "format": "cell-based, human", "conditions": "HCT-116 and HT-29; hypoxia condition", "method": "Human colorectal cancer cell lines (HCT-116 and HT-29) were cultured under normoxia or hypoxia condition. The cell lines cultured under the hypoxia condition were treated with calcium lactate, and then, expression levels of GLUT 1 and HK2 in each of the cultured cell lines were compared at the mRNA and protein expression levels (FIG. 7)."}, "[5]": {"test_system": "β-catenin", "experiment": "β-catenin and activated β-catenin protein expression in breast cancer cell lines", "format": "cell-based, human", "conditions": "MCF-7 and MDA-MB-231; with increasing concentration", "method": "Using the same method as that of Example 3-1 the expression levels of β-catenin and activated β-catenin depending on the concentration of calcium lactate were compared at the protein expression level (FIG. 6) with a human breast cancer cell line (MCF-7) cultured in a cancer cell culture medium (RPMI1640 medium including 10% FBS and 1% penicillin/streptomycin) at 37° C. with 5% CO2 and a human breast cancer cell line (MDA-MB-231) cultured in another cancer cell culture medium (DMEM medium including 10% FBS and 1% penicillin/streptomycin) at 37° C. with 5% CO2."}, "[6]": {"test_system": "human colorectal cancer stem cell line", "experiment": "Conformational change of sphere of colorectal cancer stem cell line", "format": "cell-based", "conditions": "vs DMSO control", "method": "A human colorectal cancer stem cell line was inoculated into a stem cell culture medium (medium including 1% penicillin/streptomycin and 50 times B27 and including a DMEM medium and an F12 medium mixed at 1:1) and cultured at 37° C. with 5% CO2. The cultured colorectal cancer stem cell line was treated with calcium lactate and then, it was checked whether or not there is the conformational change of a sphere formed by the stem cells (FIG. 22). In this case, a cancer cell treated with DMSO instead of calcium lactate was used as a control group."}, "[7]": {"test_system": "HIF-1α", "experiment": "HIF-1α expression in tumor tissues of animal model", "format": "in vivo, Balb/c mice", "conditions": "HT-29 tumor tissue", "method": "A colorectal cancer cell (HT-29) cultured in an RPMI1640 medium and then diluted with PBS was subcutaneously implanted into the flank of Balb/c mice. The mice were bred until the colorectal cancer cell grew to about 5 mm. Then, four groups were set up; a control group untreated with calcium lactate for 30 days, an experimental group 1 (peroral, P.O.) administered with 2.5 mM calcium lactate by oral administration, an experimental group 2 (intra tumor, I.T) injected with 2.5 mM calcium lactate around tumor, and an experimental group 3 (subcutaneous, S.C) subcutaneously injected with 25 mM calcium lactate (FIG. 27).\nColorectal cancer tissues were extracted from the mice of the control group or the experimental group 1 set up in Example 10-1, and expression levels of HIF-1α and VEGF involved in metastasis, invasion, and angiogenesis of tumor expressed therein were compared (FIG. 29). In this case, GAPDH was used as internal control groups.\nColorectal cancer tissues were extracted from the mice of the control group or the experimental group 2 set up in Example 10-1, and expression levels of HIF-1α and VEGF involved in metastasis, invasion, and angiogenesis of tumor therein were compared (FIG. 31). In this case, GAPDH was used as internal control groups."}, "[8]": {"test_system": "human melanoma cell lines (SKMEL-02 and SKMEL-28)", "experiment": "Colony-forming ability of melanoma cell lines in solid medium", "format": "cell-based", "method": "Firstly, human colorectal cancer cell lines (HCT-116, HT-29, and DLD-1) were inoculated into solid mediums including various concentrations (0 mM, 0.5 mM, 1.5 mM, or 2.5 mM) of calcium lactate and cultured for 10 days. After the completion of the culture, the cells were immobilized and stained with hematoxylin. Then, the number of cancer cells formed into colonies was counted (FIG. 23).\nThen, using the same method as described above, human melanoma cell lines (SKMEL-02 and SKMEL-28) were inoculated into solid mediums including various concentrations (1 mM, 2.5 mM, or 5 mM) of calcium lactate and culture was performed, and the number of cancer cells formed into colonies were counted (FIGS. 24a and 24b)."}, "[9]": {"experiment": "Structure and binding energy analysis of metal lactate salts", "format": "physicochemical", "conditions": "as compared to sodium lactate and potassium lactate (FIG. 1)", "description": "Calcium carbonate, sodium carbonate, or potassium carbonate was reacted with lactate so as to obtain metal lactate salt (calcium lactate, sodium lactate, or potassium lactate) solutions, respectively. Each of them was filtered, dried, and pulverized so as to obtain metal lactate salt (calcium lactate, sodium lactate, or potassium lactate) in the form of powder. Then, the structure and binding energy of the obtained metal lactate salts (calcium lactate, sodium lactate, or potassium lactate) were analyzed (FIG. 1)."}}}
{"smiles": "CC(O)C(=O)[O-].CC(O)C(=O)[O-].[Ca+2]", "note": "(centres unmarked) [calcium lactate]", "values": [{"measurement": "intracellular pH", "setting": "[1]; pH detection kit", "value": "decreased to acidic condition"}, {"measurement": "extracellular pH", "setting": "[1]; pH meter, medium", "value": "not changed"}, {"measurement": "protein expression levels of LDH-B", "setting": "[2]", "value": "sharply increased"}, {"measurement": "colony-forming ability", "setting": "[3]", "value": "suppressed"}, {"measurement": "expression levels of GLUT 1 and HK2 (activation of glycolysis)", "setting": "[4]", "value": "reduced"}, {"measurement": "protein expression levels of activated β-catenin", "setting": "[5]", "value": "decreased"}, {"measurement": "protein expression levels of β-catenin", "setting": "[5]", "value": "decreased"}, {"measurement": "conformation of the sphere", "setting": "[6]", "value": "destructed"}, {"measurement": "expression of HIF-1α", "setting": "[7]; experimental group 1, 2.5 mM oral administration", "value": "inhibited"}, {"measurement": "expression of HIF-1α", "setting": "[7]; experimental group 2, 2.5 mM injected around tumor", "value": "inhibited"}, {"measurement": "number of colonies", "setting": "[8]; SKMEL-02, 5 mM (untreated 105 to 168)", "value": "about 49 colonies"}, {"measurement": "number of colonies", "setting": "[8]; SKMEL-02 and SKMEL-28, with increasing concentration (1, 2.5, 5 mM)", "value": "decreased"}, {"measurement": "number of colonies", "setting": "[8]; SKMEL-28, 5 mM", "value": "colony was not formed"}, {"measurement": "binding energy", "setting": "[9]", "value": "relatively high binding energy"}]}
